Laboratory results published in article PMC10304174, “Development of Zeise’s Salt Derivatives Bearing Substituted Acetylsalicylic Acid Substructures as Cytotoxic COX Inhibitors” (Pharmaceutics, 2023).
Each block holds one molecule with its values, some of them ahead of it.

Experiments:
HT-29 cells [1] = assay: Crystal violet assay, antiproliferative effects in HT-29 cells; assay type: cell-based; settings: HT-29 (COX-1/2-positive), 72 h
Protocol: (§1) In order to investigate the cytotoxic effects in MCF-7 and HT-29 cells, an already published crystal violet assay was used. The cells (HT-29: 3 × 10^3 cells per well in 100 µL of medium; MCF-7: 2 × 10^3 cells per well in 100 µL of medium) were seeded in their exponential growth phase in completed DMEM into 96-well microtiter plates in quadruples. […] Cells were then fixed with a solution of 1% (v/v) glutaric dialdehyde in PBS. In order to determine the cell biomass, the chromatin of the attached cells was stained with crystal violet, and the bound dye was extracted with EtOH (70%). The absorbance was measured at 590 nm. Mean values ± SD of ≥2 independent experiments were calculated, and the activity of the complexes was expressed as the cell mass of the vehicle-treated control, which was set to 100%.
(§2) The compounds were investigated regarding their cytotoxicity (in vitro) employing an already published crystal violet assay. It is based on the quantification of the cell biomass of living cells by staining the chromatin. In order to evaluate the possible influence of COX inhibition on cell growth, Zeise’s salt derivatives were investigated comparatively in HT-29 and MCF-7 cell lines.

MCF-7 cells [2] = assay: Crystal violet assay, antiproliferative effects in MCF-7 cells; assay type: cell-based; settings: MCF-7 (COX-negative), 72 h
Protocol: as §1, §2

COX-1 [3] = target: T1, COX-1 (Ovis aries, UniProt P05979); assay: COX Inhibitor Screening Assay (EIA) on isolated COX-1 isoenzyme; assay type: biochemical, ovine; settings: for Inhibition of COX-1: incubation 10 min
T1 construct: purchased Cayman Chemicals
T1 sequence (P05979 25-600): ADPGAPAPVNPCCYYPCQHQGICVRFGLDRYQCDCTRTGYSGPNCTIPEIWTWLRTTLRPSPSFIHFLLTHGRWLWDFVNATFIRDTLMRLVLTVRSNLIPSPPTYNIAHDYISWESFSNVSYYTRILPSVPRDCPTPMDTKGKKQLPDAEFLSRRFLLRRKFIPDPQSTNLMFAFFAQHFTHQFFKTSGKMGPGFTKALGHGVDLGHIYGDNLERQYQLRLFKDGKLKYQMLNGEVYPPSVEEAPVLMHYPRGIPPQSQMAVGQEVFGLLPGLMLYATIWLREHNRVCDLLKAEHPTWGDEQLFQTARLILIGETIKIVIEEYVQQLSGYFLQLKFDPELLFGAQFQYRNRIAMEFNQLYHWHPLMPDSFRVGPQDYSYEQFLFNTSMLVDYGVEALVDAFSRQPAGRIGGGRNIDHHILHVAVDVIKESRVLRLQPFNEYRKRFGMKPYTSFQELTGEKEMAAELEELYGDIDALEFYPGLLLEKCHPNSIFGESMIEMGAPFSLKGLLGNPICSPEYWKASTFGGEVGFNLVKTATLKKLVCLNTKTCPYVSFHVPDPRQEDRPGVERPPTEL
Protocol: (§3) The incubation of the respective complexes with the isoenzymes was exactly 10 min. The values of COX inhibition were calculated as the mean of duplicates and shown as the mean ± SD of ≥2 independent experiments.

[4] = Complex stability by capillary electrophoresis (decrease of initial complex over time); assay type: physicochemical; settings: MeOH/water (50/50, v/v), 1 mM, 37 °C, CE
Protocol: The analysis was performed as previously described. A 50 mM sodium tetraborate solution (pH = 9.3, adjusted with 1 M NaOH), served as background electrolyte (BGE). Washing of novel capillaries consecutively with 1 M NaOH (45 min), water (45 min), and BGE (45 min) was performed. The hydrodynamic injection mode was utilized to introduce the samples into the capillary (50 mbar for 2 s). The capillary was kept at 25 °C, and the autosampler was thermostatted at 37 °C with an external water bath. For separation, the voltage was set to 20 kV, and the detection was carried out at the wavelength of 230 nm. Before each measurement, flushing of the capillary with 0.1 M NaOH (3 min), water (3 min), and BGE (5 min) took place. The samples were dissolved in methanol (MeOH) and further diluted in equal parts by volume with water to give a final concentration of 1 mM. Triple determinations were performed, and the half-lives (τ½) are presented as mean ± SD of ≥3 independent experiments. Samples, washing solutions, and buffers were filtered through a membrane with 0.22 µm porosity and degassed by ultrasonication before use. To simplify the reaction dynamics from a possible second-order to pseudo-first-order, one of two reactants must be present in great excess (>10 to 25-fold). If this condition is fulfilled, logarithmic plotting of the gradual decrease in the other reactant’s concentration (or increase in the concentration of a product, respectively) against the time yields a straight line, and half-lives can be calculated.
An already-established method was used to study the stability of the X-ASA-Prop-PtCl3 and X-ASA-But-PtCl3 complexes. The degradation products were separated by capillary electrophoresis using a fused-silica capillary ([…] × 75 µm, effective length: 56 cm, capillary temperature: 25 °C) and a 50 mM tetraborate buffer (pH = 9.3) as BGE. For separation, the voltage was set to 20 kV and the compounds were detected at 230 nm. Benzoic acid was used as an internal standard. Exemplary electropherograms of each complex can be found in the Supplementary Material (Figures S1–S24).
The complexes (1 mM) were dissolved in MeOH or MeOH/water (50/50, v/v) and stored at 37 °C. The decrease in the initial amount of complex was monitored time-dependently by CE, and the half-life (τ½) was calculated (Table 2).

COX-2 [5] = target: T2, COX-2 (Homo sapiens, UniProt P35354); assay: COX Inhibitor Screening Assay (EIA) on isolated COX-2 isoenzyme; assay type: biochemical; settings: incubation 10 min
T2 construct: purchased Cayman Chemicals
T2 sequence (P35354 18-604): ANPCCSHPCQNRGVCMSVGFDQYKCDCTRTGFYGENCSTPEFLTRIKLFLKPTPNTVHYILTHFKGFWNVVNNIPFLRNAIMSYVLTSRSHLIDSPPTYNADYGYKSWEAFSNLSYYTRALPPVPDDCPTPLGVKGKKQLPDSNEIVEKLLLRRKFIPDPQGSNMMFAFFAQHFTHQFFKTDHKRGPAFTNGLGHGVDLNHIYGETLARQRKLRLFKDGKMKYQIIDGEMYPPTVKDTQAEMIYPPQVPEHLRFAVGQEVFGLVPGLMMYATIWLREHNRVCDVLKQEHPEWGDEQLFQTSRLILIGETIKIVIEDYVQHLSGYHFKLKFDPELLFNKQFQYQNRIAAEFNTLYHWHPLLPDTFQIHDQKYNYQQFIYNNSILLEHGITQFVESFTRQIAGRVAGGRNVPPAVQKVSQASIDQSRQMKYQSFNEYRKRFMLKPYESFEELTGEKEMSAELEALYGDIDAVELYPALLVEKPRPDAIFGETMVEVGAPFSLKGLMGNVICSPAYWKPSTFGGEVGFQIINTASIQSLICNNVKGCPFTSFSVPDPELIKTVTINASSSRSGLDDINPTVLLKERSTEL
Protocol: as §3

HT-29 cells [6] = test system: HT-29 cells; design: method as in PMID 29848978; settings: COX-1/2-positive HT-29 colon carcinoma cells; cited from earlier work
MCF-7 cells [7] = test system: MCF-7 cells; design: method as in PMID 29848978; settings: COX-negative MCF-7 breast cancer cells; cited from earlier work
[8] = test system: PGE2 synthesis in HT-29 cells; assay: Inhibition of the PGE2 synthesis in HT-29 cells (PGE2 EIA); assay type: cell-based; settings: 24 h at 37 °C, then 50 µM arachidonic acid 1 h; for Inhibition of PGE2 synthesis: 10 µM
Protocol: Exponentially growing HT-29 cells were seeded into 24-well plates at a concentration of 5 × 10^4 cells in 500 µL of cell culture medium per well. […] In the next step, the substrate arachidonic acid (Sigma Aldrich, St. Louis, MO, USA) at a concentration of 50 µM was added. After 1 h, the COX-catalyzed PGE2 production was stopped by removing the supernatant from the cells, which was analyzed by EIA (Prostaglandin E2 Kit—Monoclonal, Cayman Chemicals, Ann Arbor, MI, USA) according to the manufacturer’s protocol.
HT-29 cells express both isoenzymes at high levels, allowing COX-1/2 interaction to be studied using an antibody-based PGE2 assay, which quantifies the PGE2 released by the cells into the cell culture medium. All Zeise’s salt derivatives were tested at a concentration of 10 µM (Figure 4).

COX-1 [9] = target: T1, COX-1; design: method as in PMID 29492489, PMID 31617517; settings: isolated isoenzymes; cited from earlier work
COX-2 [10] = target: T2, COX-2; design: method as in PMID 29492489, PMID 31617517; settings: isolated isoenzymes; cited from earlier work
[11] = design: method as in doi:10.1002/zaac.19603050315; settings: forms elemental platinum in an internal redox reaction; cited from earlier work

Structure (SMILES): CC(=O)Oc1cc(Cl)ccc1C(=O)OCC[CH]1[CH2][Pt-]1([Cl])([Cl])[Cl].[K+] (stereo not shown) [4-Cl-ASA-But-PtCl3, Potassium trichlorido[η^2-(but-3-en-1-yl)-2-acetoxy-4-chlorobenzoate]platinate(II)]
- IC50 (HT-29 cells [1]): 35.2 ± 9.3 µM
- IC50 (MCF-7 cells [2]): 31.7 ± 8.7 µM
- Inhibition of COX-1 (COX-1 [3]; 1 µM): 47.9%
- Half-life (τ½) [4]: 2370 ± 144 min
- Inhibition of COX-2 (COX-2 [5]; 1 µM): 40.0%

- Half-life (τ½) [4]: 35.7 min
Structure (SMILES): CC(=O)Oc1ccccc1C(=O)OC[CH]1[CH2][Pt-]1([Cl])([Cl])[Cl].[K+] (stereo not shown) [ASA-Prop-PtCl3]
- Growth inhibition in HT-29 cells (HT-29 cells [6]): low growth inhibitory potential
- Growth inhibition in MCF-7 cells (MCF-7 cells [7]): nearly inactive

Structure (SMILES): CC(=O)Oc1ccccc1C(=O)O [ASA, Acetylsalicylic acid]
- inhibition at 10 µM ([8]; Homo sapiens): 17.9%
- Concentration causing significant effects on COX-1 (COX-1 [9]): higher than 100 µM
- Concentration causing significant effects on COX-2 (COX-2 [10]): higher than 100 µM

Structure (SMILES): CC(=O)Oc1ccc(C)cc1C(=O)OCC[CH]1[CH2][Pt-]1([Cl])([Cl])[Cl].[K+] (stereo not shown) [5-CH3-ASA-But-PtCl3, Potassium trichlorido[η^2-(but-3-en-1-yl)-2-acetoxy-5-methylbenzoate]platinate(II)]
- IC50 (HT-29 cells [1]): 16.2 ± 2.5 µM
- IC50 (MCF-7 cells [2]): 32.5 ± 4.4 µM
- Inhibition of COX-1 (COX-1 [3]; 1 µM): 60.4%
- Half-life (τ½) [4]: 3140 ± 258 min
- Inhibition of COX-2 (COX-2 [5]; 1 µM): 45.0%

- Inhibition of COX-1 (COX-1 [3]; 1 µM): 37.3%
- Inhibition of COX-1 (COX-1 [3]; 10 µM): 94.4%
- Inhibition of COX-2 (COX-2 [5]; 1 µM): 1.5%
- Inhibition of COX-2 (COX-2 [5]; 10 µM): 8.3%
Structure (SMILES): C=C.O.[Cl][Pt-]([Cl])[Cl].[K+] [Zeise’s salt]
- Inhibition of PGE2 synthesis [8]: 24.5%
- Stability in aqueous environment [11]: not stable

Structure (SMILES): CC(=O)Oc1c(Cl)cccc1C(=O)OC[CH]1[CH2][Pt-]1([Cl])([Cl])[Cl].[K+] (stereo not shown) [3-Cl-ASA-Prop-PtCl3, Potassium trichlorido[η^2-(prop-2-en-1-yl)-2-acetoxy-3-chlorobenzoate]platinate(II)]
- IC50 (HT-29 cells [1]): 89.7 ± 25.7 µM
- IC50 (MCF-7 cells [2]): 56.3 ± 5.8 µM
- Inhibition of COX-1 (COX-1 [3]; 1 µM): 51.7%
- Half-life (τ½) [4]: 31.4 ± 1.7 min
- Inhibition of COX-2 (COX-2 [5]; 1 µM): 58.8%

Structure (SMILES): CC(=O)Oc1ccc(C)cc1C(=O)OC[CH]1[CH2][Pt-]1([Cl])([Cl])[Cl].[K+] (stereo not shown) [5-CH3-ASA-Prop-PtCl3, Potassium trichlorido[η^2-(prop-2-en-1-yl)-2-acetoxy-5-methylbenzoate]platinate(II)]
- Inhibition of PGE2 synthesis [8]: 82.4%
- IC50 (HT-29 cells [1]): 21.9 ± 4.6 µM
- IC50 (MCF-7 cells [2]): 70.2 ± 2.8 µM
- Half-life (τ½) [4]: 36.7 ± 1.1 min

Structure (SMILES): CC(=O)Oc1ccc(Cl)cc1C(=O)OC[CH]1[CH2][Pt-]1([Cl])([Cl])[Cl].[K+] (stereo not shown) [5-Cl-ASA-Prop-PtCl3, Potassium trichlorido[η^2-(prop-2-en-1-yl)-2-acetoxy-5-chlorobenzoate]platinate(II)]
- Inhibition of PGE2 synthesis [8]: 84.0%
- IC50 (HT-29 cells [1]): 53.4 ± 0.7 µM
- IC50 (MCF-7 cells [2]): 52.8 ± 9.2 µM
- COX-1 selectivity (COX-1 [3]; from inhibition at 1 µM, COX-1 over COX-2): 1.7 fold
- Half-life (τ½) [4]: 35.2 ± 0.9 min

Structure (SMILES): CC(=O)Oc1cc(C)ccc1C(=O)OC[CH]1[CH2][Pt-]1([Cl])([Cl])[Cl].[K+] (stereo not shown) [4-CH3-ASA-Prop-PtCl3, Potassium trichlorido[η^2-(prop-2-en-1-yl)-2-acetoxy-4-methylbenzoate]platinate(II)]
- Inhibition of PGE2 synthesis [8]: 88.4%
- IC50 (HT-29 cells [1]): 24.2 ± 2.4 µM
- IC50 (MCF-7 cells [2]): 62.9 ± 1.6 µM
- Half-life (τ½) [4]: 40.4 ± 1.1 min

- Half-life (τ½) [4]: 4180 min
Structure (SMILES): CC(=O)Oc1ccccc1C(=O)OCC[CH]1[CH2][Pt-]1([Cl])([Cl])[Cl].[K+] (stereo not shown) [ASA-But-PtCl3]
- Growth inhibition in HT-29 cells (HT-29 cells [6]): low growth inhibitory potential
- Growth inhibition in MCF-7 cells (MCF-7 cells [7]): nearly inactive
